Laboratory results: US8197819B2, “Env polypeptide complexes and methods of use” (priority 2004, dated 2012)
Entries after “also recorded” stand apart in the source; their conditions may differ.

Tests used:
Parameters in all cases: species or system HIV
gp120SF162 (17b epitope) = gp120SF162 (17b epitope) (Human immunodeficiency virus type 1 group M subtype B, UniProt P19550); assay: SPR (Biacore) upregulation of monoclonal antibody 17b binding to Env/compound complex; settings: for upregulation of CD4 inducible epitopes on gp120: FIGS. 4B, 5B, antibody not stated in the legend
Experimental: (§1) In a second step, each of the 100 structurally identified compounds was screened for its ability to compete with CD4 binding to Env (gp120) as well as its ability to induce the desired conformational change in the HIV Env protein to expose inducible epitopes. Both binding competition and exposure of cryptic epitopes were analyzed using Biacore's SRP systems. (Biacore Inc., Piscataway, N.J.), following the manufacturer's instructions.
(§2) Surface plasmon resonance assays were performed using a BIACORE 3000 optical biosensor system (Biacore AB, Uppsala, Sweden) with simultaneous monitoring of relevant flow cells. To perform the kinetic study of the binding of HIV env to sCD4, sCD4 was immobilized using amine coupling onto CM5 sensor chip to attain 4000 response units. To perform the kinetic study of the binding of HIV env to the monoclonal antibody 17b, antibodies were immobilized using amine coupling onto a CM5 sensor chip to attain 2000 response units. Using PBS buffer (pH 7.4) with 0.05% Tween 20 and 3% DMSO, association was assessed by passing gp120SF162 (GenBank P03378; Sanchez-Pescador et al. (1985) Science, 227(4686): 484-492), with and without various controls or small molecules, over the chip surface at a flow rate of 25 μl/min. The concentration of gp120SMF162 used was 1 uM for all samples. As a negative control, a control surface coupled to 2000 response units of BSA (Pierce) was used. A buffer only control was subtracted from all sensograms. Responses were measured by assessing the maximum RUs (response units) obtained at the peak of the binding curve.
The percentage upregulation of 17b was determined by dividing the peak RU observed for the Env polypeptide/compound complex divided by the peak RU for the Env polypeptide alone.
(§3) Additional candidate small molecules were screened for CD4 binding inhibition and upregulation of CD4 inducible epitopes, e.g., mABs 17b and 48D, by HPLC and BlAcore methods as described in Examples 1 and 4 above. Each of the compounds in Table 5 below was screened three times by both methods using different lots of both gp120 and antibodies. The rounds of screening tests were additionally carried out on different dates.

gp120 (48D epitope) = molecular target: T1, gp120 (48D epitope) (Human immunodeficiency virus type 1 group M subtype B, UniProt P19550); assay: SPR (Biacore) upregulation of monoclonal antibody 48D binding to Env/compound complex; settings: Example 6 screening; FIG. 6C
T1 construct: The concentration of gp120SMF162 used was 1 uM for all samples
Experimental: as §2
Additional candidate small molecules were screened for CD4 binding inhibition and upregulation of CD4 inducible epitopes, e.g., mABs 17b and 48D, by HPLC and BlAcore methods as described in Examples 1 and 4 above. […]

gp120SF162 [1] = molecular target: T2, gp120SF162 (Human immunodeficiency virus type 1 group M subtype B, UniProt P19550); assay: Example 6 screening for CD4 binding inhibition (SEC-HPLC with fluorescently-labelled CD4, and Biacore); settings: three rounds
From the text: as §3
CD4 binding competition was examined in the free solution state by HPLC. Various candidate small molecules were each mixed with gp120SF162 and the resulting solution was incubated for 1 hour at 37° C. Fluorescently-labelled CD4, CD4 488, was then added to each incubated solution, and the resulting mixture was analyzed by size exclusion HPLC (SEC-HPLC), using fluorescent signal detection. The extent of competition with CD4 was determined as follows.

gp120SF162 [2] = molecular target: T2, gp120SF162; assay: SPR (Biacore) competition: gp120 binding to immobilized sCD4 with and without small molecule; settings: FIG. 1, compared to when the small molecule was not present
Experimental: as §1
as §2, with “The concentration of gp120SMF162 used was 1 uM for all samples. As a negative control, a control surface coupled to 2000 response units of BSA (Pierce) was used. A buffer only control was subtracted from all sensograms.” left out

Row | SMILES | upregulation of 17b (CD4 inducible epitope on gp120) (gp120SF162 (17b epitope); Example 6 screening, binding to monoclonal antibody 17b) | upregulation of CD4 inducible epitopes on gp120, binding to monoclonal antibody 48D (gp120 (48D epitope)) | inhibition of (competition with) CD4 binding to gp120 (gp120SF162 [1]) | upregulation of CD4 inducible epitopes on gp120 (gp120SF162 (17b epitope); Example 6 screening) | binding of Env/small molecule complex to monoclonal antibody 17b (gp120SF162 (17b epitope); SPR, FIG. 2, in comparison to Env-sCD4 complexes) | inhibition of CD4 binding to Env (Env binding to the CD4 chip) (gp120SF162 [2])
1 | COc1ccc2[nH]cc(C(=O)CN3CCN(Cc4ccccc4)CC3)c2c1 [Compound 2, 2-(4-benzylpiperazin-1-yl)-1-(5-methoxy-1H-indol-3-yl)ethanone] | upregulation of CD4 inducible epitopes on gp120 | upregulation of CD4 inducible epitopes on gp120 | non-inhibition of CD4 binding to gp120 | – | – | –
2 | COc1cc(C(=O)N2CCC(c3c[nH]c4ccccc34)CC2)cc(OC)c1OC [Compound 12, [4-(1H-indol-3-yl)-piperidin-1-yl]-(3,4,5-trimethoxy-phenyl)-methanone] | – | – | inhibition of CD4 binding to gp120 | absence of upregulation of CD4 inducible epititopes on gp120 | – | –
3 | COc1ccccc1N1CCN(CC(=O)c2c(C)[nH]c3ccccc23)CC1 [Compound 26, 2-[4-(2-Methoxy-phenyl)-piperazin-1-yl]-1-(2-methyl-1H-indol-3-yl)-ethanone] | – | – | inhibition of CD4 binding to gp120 | upregulation of CD4 inducible epititopes on gp120 | – | –
4 | CCOC(=O)C1CCN(C(=O)c2cc3c(C)cc(C)cc3[nH]2)CC1 [Compound 5, ethyl 1-[(4,6-dimethyl-1H-indol-2-yl)carbonyl]piperidine-4-carboxylate] | – | – | – | – | exhibited enhanced binding to monoclonal antibody 17b | inhibition of CD4 binding to Env; also recorded: inhibited binding of Env to the CD4 chip
